According to patent publication US20090232909A1, “Method for determining physiological effects of hemoglobin” (priority 1999, published 2009):
“Also recorded” adds a separate entry of the source.

Biological target: T1, AE1 (Homo sapiens, UniProt P02730)
T1 construct: immunoprecipitated AE1 with monoclonal antibodies, and measured NO in immunoprecipitates (IPs); endogenous in cells; host or cells: RBCs (fresh venous blood) and IOVs from outdated RBCs; TX-100 or NP-40 extracts
T1 sequence (P02730 1-911): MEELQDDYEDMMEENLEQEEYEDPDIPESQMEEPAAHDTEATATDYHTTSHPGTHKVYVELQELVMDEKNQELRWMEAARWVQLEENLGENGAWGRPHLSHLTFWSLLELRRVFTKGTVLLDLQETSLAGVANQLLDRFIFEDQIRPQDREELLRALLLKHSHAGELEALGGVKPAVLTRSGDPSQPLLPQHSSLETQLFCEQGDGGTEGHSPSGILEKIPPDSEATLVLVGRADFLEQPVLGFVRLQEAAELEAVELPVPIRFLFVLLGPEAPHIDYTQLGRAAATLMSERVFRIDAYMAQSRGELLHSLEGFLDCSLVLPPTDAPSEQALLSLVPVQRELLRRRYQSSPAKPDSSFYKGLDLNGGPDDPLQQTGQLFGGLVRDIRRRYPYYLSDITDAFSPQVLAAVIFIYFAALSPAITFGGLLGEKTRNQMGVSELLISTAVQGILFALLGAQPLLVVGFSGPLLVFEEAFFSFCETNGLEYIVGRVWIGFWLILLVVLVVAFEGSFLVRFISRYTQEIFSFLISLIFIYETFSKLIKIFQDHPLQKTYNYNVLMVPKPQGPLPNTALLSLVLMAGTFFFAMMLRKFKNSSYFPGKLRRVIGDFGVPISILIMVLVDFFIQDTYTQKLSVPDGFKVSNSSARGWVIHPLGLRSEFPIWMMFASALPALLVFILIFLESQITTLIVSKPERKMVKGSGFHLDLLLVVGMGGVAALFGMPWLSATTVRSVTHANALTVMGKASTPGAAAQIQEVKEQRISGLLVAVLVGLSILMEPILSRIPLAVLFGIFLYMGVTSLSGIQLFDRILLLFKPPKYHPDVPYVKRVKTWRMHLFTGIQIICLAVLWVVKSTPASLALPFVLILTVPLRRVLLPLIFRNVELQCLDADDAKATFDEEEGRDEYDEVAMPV
Assay: SNO content of AE1 immunoprecipitates from IOV and RBC membrane extracts
Type: biochemical
Conditions: RBCs treated with 0.1 mM DIDS before NO
Procedure: Immunoprecipitation was carried out by incubation of TX-100 or NP-40 extracts with antibodies followed by protein G-Sepharose. We employed two monoclonal anti-AE1 antibodies (Sigma, clone BIII-136, and kindly provided by M. Telen) that recognized epitopes in the cytoplasmic domain and that produced indistinguishable results. Immune complexes were eluted with 10 mM glycine at pH 3.0, and eluates were adjusted immediately to pH 7.4 followed by photolysis/chemiluminescence. Efficiency of immunoprecipitation was confirmed by Western blotting. Binding of SNO-Hb to IOVs was assessed in 10 mM MOPS buffer, pH 7, at room temperature and 21% O2. Incubation was for 15 mins before IOVs were solubilized in 1% TX-100, and heme content was assessed spectrophotometrically. When employed, RBCs were treated for 60 mins with DIDS (0.1 mM; calculated 10-fold molar excess over AE1), then washed thoroughly to remove unreacted DIDS. RBCs were then exposed to NO (as above) or used to prepare DIDS-modified IOVs (as above).
To assess this mechanism, we incubated IOVs with free or Sepharose-bound NO-Hb and also treated RBCs with NO(NO:heme ratio of 1:250), prepared TX-100 or NP-40 extracts of IOVs and RBC membranes, immunoprecipitated AE1 with monoclonal antibodies, and measured NO in immunoprecipitates (IPs). […] SNO was detected at negligible levels in IPs generated with a non-specific mouse IgG (FIGS. 8A-8C). […]

Structure (SMILES): O=S(=O)(O)c1cc(N=C=S)ccc1C=Cc1ccc(N=C=S)cc1S(=O)(=O)O [DIDS, 4,4′-diisothiocyanatostilbene-2,2′-disulfonic acid]
- effect on SNO content of AE1 IPs from RBC membrane extracts: reduced substantially; also recorded: greatly reduced
